In one assay the target is T1, Thromboxane A2 receptor (Homo sapiens, UniProt P21731).
T1 sequence (P21731 whole entry): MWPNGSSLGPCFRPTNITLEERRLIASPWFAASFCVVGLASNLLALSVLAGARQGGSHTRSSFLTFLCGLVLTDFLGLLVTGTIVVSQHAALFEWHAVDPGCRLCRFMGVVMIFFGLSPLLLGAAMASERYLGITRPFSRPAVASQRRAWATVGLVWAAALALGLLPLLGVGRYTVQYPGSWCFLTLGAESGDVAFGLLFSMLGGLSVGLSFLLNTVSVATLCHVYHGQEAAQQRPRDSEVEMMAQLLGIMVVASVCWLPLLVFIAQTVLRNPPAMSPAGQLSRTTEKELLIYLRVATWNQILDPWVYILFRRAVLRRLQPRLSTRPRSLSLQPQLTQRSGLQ
It is filed as functional, cell-based.

The target in assay [1] is T2, Alpha-2A adrenergic receptor (Homo sapiens, UniProt P08913).
T2 sequence (P08913 whole entry): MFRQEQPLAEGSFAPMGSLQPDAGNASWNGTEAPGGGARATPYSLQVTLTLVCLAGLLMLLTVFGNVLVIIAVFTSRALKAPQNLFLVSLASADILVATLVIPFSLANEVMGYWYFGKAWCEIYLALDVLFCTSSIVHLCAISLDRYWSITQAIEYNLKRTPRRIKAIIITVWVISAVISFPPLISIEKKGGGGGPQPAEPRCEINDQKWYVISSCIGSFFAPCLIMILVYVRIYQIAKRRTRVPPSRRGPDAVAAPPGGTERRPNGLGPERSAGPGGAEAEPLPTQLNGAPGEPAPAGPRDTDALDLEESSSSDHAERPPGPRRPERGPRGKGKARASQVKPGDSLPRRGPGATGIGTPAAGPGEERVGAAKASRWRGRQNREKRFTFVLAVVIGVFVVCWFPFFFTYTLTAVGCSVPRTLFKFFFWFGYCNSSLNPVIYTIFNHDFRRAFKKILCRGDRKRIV

For assay [2], the target named is T3, Retinoic acid receptor gamma (Homo sapiens, UniProt P13631).
T3 sequence (P13631 whole entry): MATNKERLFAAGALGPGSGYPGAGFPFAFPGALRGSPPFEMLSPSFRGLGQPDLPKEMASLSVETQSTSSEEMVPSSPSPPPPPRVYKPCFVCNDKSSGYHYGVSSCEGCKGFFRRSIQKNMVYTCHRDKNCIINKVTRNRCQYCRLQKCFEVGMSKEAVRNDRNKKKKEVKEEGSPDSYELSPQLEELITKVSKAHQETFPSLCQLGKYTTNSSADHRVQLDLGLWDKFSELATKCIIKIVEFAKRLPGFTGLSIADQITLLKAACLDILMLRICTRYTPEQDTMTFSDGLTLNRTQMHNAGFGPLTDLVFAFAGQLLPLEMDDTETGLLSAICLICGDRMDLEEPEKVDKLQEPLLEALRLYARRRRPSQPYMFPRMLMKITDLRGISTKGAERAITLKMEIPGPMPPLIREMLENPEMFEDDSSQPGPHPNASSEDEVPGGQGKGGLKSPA
It is filed as functional, cell-based.

The target of assay [3] is T4, Retinoic acid receptor alpha (Homo sapiens, UniProt P10276).
T4 sequence (P10276 whole entry): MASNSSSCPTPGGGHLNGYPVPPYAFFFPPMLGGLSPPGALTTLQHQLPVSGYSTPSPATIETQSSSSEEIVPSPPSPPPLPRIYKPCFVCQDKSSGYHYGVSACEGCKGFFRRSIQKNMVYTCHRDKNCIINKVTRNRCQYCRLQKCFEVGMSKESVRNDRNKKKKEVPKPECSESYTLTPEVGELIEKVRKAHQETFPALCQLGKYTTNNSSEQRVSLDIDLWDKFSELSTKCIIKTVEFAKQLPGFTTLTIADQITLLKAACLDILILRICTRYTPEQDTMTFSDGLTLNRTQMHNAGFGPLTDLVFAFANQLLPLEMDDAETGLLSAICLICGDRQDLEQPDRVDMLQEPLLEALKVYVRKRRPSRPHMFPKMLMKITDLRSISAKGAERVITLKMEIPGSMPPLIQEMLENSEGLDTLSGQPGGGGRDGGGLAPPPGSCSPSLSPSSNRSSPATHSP
It is filed as functional, cell-based.

Assay [4] deals with T4, Retinoic acid receptor alpha. It is filed as functional, cell-based. This is another data set of the same source.
The target in assay [5] is T5, Retinoic acid receptor beta (Homo sapiens, UniProt P10826).
T5 sequence (P10826 whole entry): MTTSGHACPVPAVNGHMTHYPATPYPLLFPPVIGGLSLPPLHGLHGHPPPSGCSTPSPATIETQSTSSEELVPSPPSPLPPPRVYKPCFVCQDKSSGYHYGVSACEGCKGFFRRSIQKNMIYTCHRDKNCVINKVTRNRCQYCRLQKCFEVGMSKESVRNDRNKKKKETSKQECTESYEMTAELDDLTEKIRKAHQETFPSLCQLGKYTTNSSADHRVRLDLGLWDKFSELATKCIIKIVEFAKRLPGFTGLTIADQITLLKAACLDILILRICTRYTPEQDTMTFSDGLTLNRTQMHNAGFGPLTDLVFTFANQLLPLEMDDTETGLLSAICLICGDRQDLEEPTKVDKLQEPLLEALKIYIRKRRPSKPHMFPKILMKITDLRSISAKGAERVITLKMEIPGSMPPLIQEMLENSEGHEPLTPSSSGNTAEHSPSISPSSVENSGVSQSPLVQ
It is filed as functional, cell-based.

Assay [6] concerns the target T5, Retinoic acid receptor beta. It is filed as functional, cell-based. The source holds these as a separate data set.
For assay [7], the target named is T6, Oxysterols receptor LXR-alpha (Homo sapiens, UniProt Q13133).
T6 sequence (Q13133 whole entry): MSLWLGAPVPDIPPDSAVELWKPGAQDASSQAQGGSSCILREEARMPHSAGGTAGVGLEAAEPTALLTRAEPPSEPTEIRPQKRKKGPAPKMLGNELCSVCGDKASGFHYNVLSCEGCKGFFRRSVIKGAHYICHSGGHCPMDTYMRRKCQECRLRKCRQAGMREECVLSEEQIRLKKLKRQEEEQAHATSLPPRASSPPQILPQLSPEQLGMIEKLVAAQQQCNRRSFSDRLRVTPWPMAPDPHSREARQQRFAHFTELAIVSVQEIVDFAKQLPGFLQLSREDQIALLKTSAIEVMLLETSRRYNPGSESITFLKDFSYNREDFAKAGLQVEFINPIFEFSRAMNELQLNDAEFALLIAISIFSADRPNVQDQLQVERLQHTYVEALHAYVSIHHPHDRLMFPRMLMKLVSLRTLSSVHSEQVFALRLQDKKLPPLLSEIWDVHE
It is filed as functional.

Assay [8] addresses Rod cGMP-specific 3',5'-cyclic phosphodiesterase subunit alpha (Homo sapiens, UniProt P16499). It is filed as functional.
The next assay has as its target D(1B) dopamine receptor (Homo sapiens, UniProt P21918).

Molecules are shown by their SMILES. Some results are limits rather than exact numbers.
Further: assay procedure not described here.

Chain of Rod cGMP-specific 3',5'-cyclic phosphodiesterase subunit alpha (P16499 whole entry): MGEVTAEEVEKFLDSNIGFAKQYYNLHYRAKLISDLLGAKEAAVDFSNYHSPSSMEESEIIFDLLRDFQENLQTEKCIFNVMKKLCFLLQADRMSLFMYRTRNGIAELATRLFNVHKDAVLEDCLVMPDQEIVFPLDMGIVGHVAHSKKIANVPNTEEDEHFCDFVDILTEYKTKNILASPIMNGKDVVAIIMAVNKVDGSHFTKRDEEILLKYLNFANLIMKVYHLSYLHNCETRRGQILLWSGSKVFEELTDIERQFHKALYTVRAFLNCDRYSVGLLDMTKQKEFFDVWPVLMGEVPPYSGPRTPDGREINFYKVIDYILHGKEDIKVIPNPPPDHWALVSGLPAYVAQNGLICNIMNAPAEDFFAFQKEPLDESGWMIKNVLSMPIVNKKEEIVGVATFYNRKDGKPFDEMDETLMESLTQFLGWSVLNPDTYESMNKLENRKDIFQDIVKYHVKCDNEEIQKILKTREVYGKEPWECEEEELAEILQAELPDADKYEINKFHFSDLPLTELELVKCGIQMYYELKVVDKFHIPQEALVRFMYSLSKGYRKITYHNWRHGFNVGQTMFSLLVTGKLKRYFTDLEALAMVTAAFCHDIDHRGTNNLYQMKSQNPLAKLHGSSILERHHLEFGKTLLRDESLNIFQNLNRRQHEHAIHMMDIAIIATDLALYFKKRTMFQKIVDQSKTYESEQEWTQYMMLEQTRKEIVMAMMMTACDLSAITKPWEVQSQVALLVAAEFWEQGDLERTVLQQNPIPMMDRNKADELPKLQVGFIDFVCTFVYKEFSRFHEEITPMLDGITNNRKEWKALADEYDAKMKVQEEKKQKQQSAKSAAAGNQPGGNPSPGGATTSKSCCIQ
Chain of D(1B) dopamine receptor (P21918 whole entry): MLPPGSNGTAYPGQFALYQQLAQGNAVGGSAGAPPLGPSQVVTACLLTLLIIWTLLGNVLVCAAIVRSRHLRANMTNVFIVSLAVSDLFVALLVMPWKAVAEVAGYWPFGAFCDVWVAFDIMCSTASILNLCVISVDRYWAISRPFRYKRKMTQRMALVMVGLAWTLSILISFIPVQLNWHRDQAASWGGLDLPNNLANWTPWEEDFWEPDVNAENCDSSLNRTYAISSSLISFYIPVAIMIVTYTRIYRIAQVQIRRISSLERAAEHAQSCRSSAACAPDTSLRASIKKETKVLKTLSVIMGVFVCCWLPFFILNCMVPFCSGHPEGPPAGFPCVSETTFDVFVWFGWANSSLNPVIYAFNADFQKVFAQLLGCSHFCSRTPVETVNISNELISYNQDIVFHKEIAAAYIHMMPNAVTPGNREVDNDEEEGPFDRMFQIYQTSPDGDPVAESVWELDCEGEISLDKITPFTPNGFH

In the case of `COc1cc2nccc(Oc3ccc(NC(=O)C4(C(=O)Nc5ccc(F)cc5)CC4)cc3)c2cc1OC` [CABOZANTINIB], the results for the AC50 (at Thromboxane A2 receptor; in assay [1]) were 5.52 µM and > 30 µM, respectively.

As for `CC(C(=O)O)c1ccc2c(c1)[nH]c1ccc(Cl)cc12` (stereo not given) [CARPROFEN], the concentration at half-maximal activity (AC50) in assay [2], in [3], in assay [4], in assay [5], in [6] and in [7] was > 30 µM in each case.

Regarding `N[C@@H](CC(=O)N1CCn2c(nnc2C(F)(F)F)C1)Cc1cc(F)c(F)cc1F` [SITAGLIPTIN], the AC50 (in assay [8]; on D(1B) dopamine receptor) was > 10 µM each time.

In the case of `CCN(CC)CCNC(=O)c1c(C)[nH]c(/C=C2\C(=O)Nc3ccc(F)cc32)c1C` [SUNITINIB], the AC50 in assay [2] was > 30 µM; in [3], > 3 µM; in [4] it was > 10 µM; in [5], > 30 µM; in assay [6], > 3 µM; in [7], > 30 µM.

For `C=CC[C@@H]1/C=C(\C)C[C@H](C)C[C@H](OC)[C@H]2O[C@@](O)(C(=O)C(=O)N3CCCC[C@H]3C(=O)O[C@H](/C(C)=C/[C@@H]3CC[C@@H](O)[C@H](OC)C3)[C@H](C)[C@@H](O)CC1=O)[C@H](C)C[C@@H]2OC` [TACROLIMUS ANHYDROUS], half-maximal activity on Thromboxane A2 receptor (AC50) was put at 10 µM.

Take `COc1cc2nc(N3CCN(C(=O)C4CCCO4)CC3)nc(N)c2cc1OC` (stereo not given) [TERAZOSIN]: in assay [1], half-maximal activity (AC50) was put at 29 µM.

As for `Cc1onc(-c2ccccc2)c1-c1ccc(S(N)(=O)=O)cc1` [VALDECOXIB], the concentration at half-maximal activity (AC50) (in assay [8]; on D(1B) dopamine receptor) was > 10 µM throughout.

What is called AC50 is the midpoint of the concentration-response curve, whichever way the signal moves. A higher AC50 goes with weaker potency.

The values above are taken from ChEMBL document CHEMBL5291721, “A preclinical secondary pharmacology resource illuminates target-adverse drug reaction associations of marketed drugs” (Nat Commun, 2023).
